Reference: patent US20240116946A1 (Gilead Sciences, Inc., priority 2022, published 2024)
Like-named read-outs stand apart in the source and are kept apart here.

Legend:
[1] = tested on: SARS-CoV-2-NLuc; assay: microbe, parasite or virus in culture; format: cell-based, SARS Coronavirus 2
[2] = target: recombinant SARS-CoV-2 Main protease (Mpro) (Severe acute respiratory syndrome coronavirus 2 (2019-nCoV) (SARS-CoV-2), UniProt P0DTD1); assay: Cov Mpro Biochemical IC50 Assay; details: recombinant SARS-CoV-2 Mpro 7.5 nM, fluorogenic peptide substrate 40 μM; read-out: MPro IC50
[3] = Severe acute respiratory syndrome coronavirus, 48 h, read-out: MPro EC50
[4] = Severe acute respiratory syndrome coronavirus, 48 h; read-out: MPro EC50

Row | SMILES | EC50 [1, 3] [nM] | IC50 [2] [nM] | EC50 [1, 4] [nM]
1 | COc1cc(-c2cc3c(s2)c(=O)n(-c2cncc4cnccc24)c(=O)n3CCC#N)c(Cl)cc1F [Example 917] | 6.09 | 7.5 | –
2 | COc1cc(-c2cc3c(s2)c(=O)n(-c2cncc4nn(CC(F)(F)F)c(C)c24)c(=O)n3CCC#N)c(Cl)cc1F [Example 918] | 43.1 | 24.3 | –
3 | COc1cc(-c2cc3c(s2)c(=O)n(-c2cncc4c2c(C)nn4CC(F)(F)F)c(=O)n3CCC#N)c(Cl)cc1F [Example 919] | 366 | 926 | –
4 | COc1cc(-c2cc3c(s2)c(=O)n(-c2cncc4cccc(Cl)c24)c(=O)n3CCC#N)c(Cl)cc1F [Example 921] | 1.92 | 1.42 | –
5 | COc1cc(-c2cc3c(s2)c(=O)n(-c2cncc4cnsc24)c(=O)n3CCC#N)c(Cl)cc1F [Example 922] | > 1000 | 2.8 | –
6 | COc1cc(-c2cc3c(s2)c(=O)n(-c2cncc4ccncc24)c(=O)n3CCC#N)c(Cl)cc1F [Example 923, 3-[6-(2-chloro-4-fluoro-5-methoxy-phenyl)-3-(2,6-naphthyridin-4-yl)-2,4-dioxo-thieno[3,2-d]pyrimidin-1-yl]propanenitrile] | 2 | 4.3 | –
7 | COc1cc(-c2cc3c(s2)c(=O)n(-c2cncc(C4CC4)c2)c(=O)n3CCC#N)c(Cl)cc1F [Example 924] | 5.31 | 2.52 | –
8 | COc1cc(-c2cc3c(s2)c(=O)n(-c2cncc4c2c(C)nn4C)c(=O)n3CCC#N)c(Cl)cc1F [Example 925, 3-(6-(2-chloro-4-fluoro-5-methoxyphenyl)-3-(1,3-dimethyl-1H-pyrazolo[3,4-c]pyridin-4-yl)-2,4-dioxo-3,4-dihydrothieno[3,2-d]pyrimidin-1(2H)-yl)propanenitrile] | 6.55 | 6.13 | –
9 | COc1cc(-c2cc3c(s2)c(=O)n(-c2cncc4nn(C)c(C)c24)c(=O)n3CCC#N)c(Cl)cc1F [Example 926, 3-(6-(2-chloro-4-fluoro-5-methoxyphenyl)-3-(2,3-dimethyl-2H-pyrazolo[3,4-c]pyridin-4-yl)-2,4-dioxo-3,4-dihydrothieno[3,2-d]pyrimidin-1(2H)-yl)propanenitrile] | 8.89 | 6.74 | –
10 | COc1cc(-c2cc3c(s2)c(=O)n(-c2cncc(Cl)c2C)c(=O)n3CCC#N)c(Cl)cc1F [Example 927, 3-[6-(2-chloro-4-fluoro-5-methoxy-phenyl)-3-(5-chloro-4-methyl-3-pyridyl)-2,4-dioxo-thieno[3,2-d]pyrimidin-1-yl]propanenitrile] | 6.88 | 7.02 | –
11 | COc1cc(-c2cc3c(s2)c(=O)n(-c2cncc(Cl)c2Cl)c(=O)n3CCC#N)c(Cl)cc1F [Example 928] | 16.2 | 12.2 | –
12 | COc1cc(-c2cc3c(s2)c(=O)n(-c2nncc4ccccc24)c(=O)n3CCC#N)c(Cl)cc1F [Example 929] | 2.76 | 5.72 | –
13 | Cc1noc(C)c1-c1cc2c(s1)c(=O)n(-c1cncc3cnn(C)c13)c(=O)n2CCC#N [Example 930] | > 1000 | 541 | –
14 | COc1cc(-c2cc3c(s2)c(=O)n(-c2cc(C)cnn2)c(=O)n3CCC#N)c(Cl)cc1F [Example 931] | 5.48 | 2.53 | –
15 | COc1cc(-c2cc3c(s2)c(=O)n(-c2cncc(C)c2C)c(=O)n3CCC#N)c(Cl)cc1F [Example 932] | 2.42 | 5.33 | –
16 | Cn1ncc2cncc(-n3c(=O)c4sc(-c5c(Cl)cccc5-c5cncc(C#N)c5)cc4n(CCC#N)c3=O)c21 [Example 934] | 49 | 8.3 | –
17 | N#CCCn1c(=O)n(-c2cncc3ccccc23)c(=O)c2sc(-c3c(Cl)cccc3-c3cncc(C#N)c3)cc21 [Example 935] | 24.6 | 14.3 | –
18 | COc1cc(-c2cc3c(s2)c(=O)n(-c2cncc4nnn(C)c24)c(=O)n3CCC#N)c(Cl)cc1F [Example 936, 3-(6-(2-chloro-4-fluoro-5-methoxyphenyl)-3-(1-methyl-1H-[1,2,3]triazolo[4,5-c]pyridin-7-yl)-2,4-dioxo-3,4-dihydrothieno[3,2-d]pyrimidin-1(2H)-yl)propanenitrile] | 6.65 | 5.46 | –
19 | COc1cc(-c2cc3c(s2)c(=O)n(-c2cncc4c2n(C)c(=O)n4C)c(=O)n3CCC#N)c(Cl)cc1F [Example 937] | 11.4 | 8.42 | –
20 | N#CCCn1c(=O)n(-c2cncc3nnn(C4CC4)c23)c(=O)c2sc(-c3ccccc3Cl)cc21 [Example 938] | 77 | 17.6 | –
21 | COc1cc(-c2cc3c(s2)c(=O)n(-c2cncc4nnn(C5CC5)c24)c(=O)n3CCC#N)c(Cl)cc1F [Example 939] | 30.3 | 11 | –
22 | CCn1c(C)nc2cncc(-n3c(=O)c4sc(-c5cc(OC)c(F)cc5Cl)cc4n(CCC#N)c3=O)c21 [Example 940] | 23.6 | 5.28 | –
23 | COc1cc(-c2cc3c(s2)c(=O)n(-c2cncc4nc(C)sc24)c(=O)n3CCC#N)c(Cl)cc1F [Example 941] | 40.1 | 7.53 | –
24 | COc1cnc(Cl)c(-c2cc3c(s2)c(=O)n(-c2cncc4ccccc24)c(=O)n3CCC#N)c1 [Example 942] | 13.2 | 12 | –

Row | SMILES | EC50 [1, 3] [nM] | IC50 [2] [nM] | EC50 [1, 4] [nM]
25 | COc1cc(-c2cc3c(s2)c(=O)n(-c2cncc4cccc(F)c24)c(=O)n3CCC#N)c(C#N)cc1F [Example 943] | 10 | 10.3 | –
26 | COc1cc(-c2cc3c(s2)c(=O)n(-c2cncc(C)c2Cl)c(=O)n3CCC#N)c(Cl)cc1F [Example 944] | 8.22 | 6.67 | –
27 | COc1cc(-c2cc3c(s2)c(=O)n(-c2cncc4ccc(F)cc24)c(=O)n3CCC#N)c(Cl)cc1F [Example 945] | 8.65 | 8 | –
28 | COc1cc(-c2cc3c(s2)c(=O)n(-c2cncc4ccc(Cl)cc24)c(=O)n3CCC#N)c(Cl)cc1F [Example 946] | 12.9 | 6.82 | –
29 | COc1cc(-c2cc3c(s2)c(=O)n(-c2cncc4ccc(C#CC(C)(C)O)cc24)c(=O)n3CCC#N)c(Cl)cc1F [Example 947] | 14.2 | 7.28 | –
30 | N#CCCn1c(=O)n(-c2cncc3ccc(F)cc23)c(=O)c2sc(-c3ccc(F)cc3Cl)cc21 [Example 948] | 12.1 | 12.5 | –
31 | COc1cc(-c2ccc3c(=O)n(-c4cncc5ccccc45)c(=O)n(CCC#N)c3c2)c(Cl)cc1F [Example 949] | 757 | 147 | –
32 | COc1cc(-c2cc3c(s2)c(=O)n(-c2cncc4c(F)cccc24)c(=O)n3CCC#N)c(Cl)cc1F [Example 950] | 11.8 | 4.5 | –
33 | COc1cc(-c2cc3c(s2)c(=O)n(-c2cncc4cc(F)ccc24)c(=O)n3CCC#N)c(Cl)cc1F [Example 951] | 5.38 | 9.45 | –
34 | COc1cc(-c2cc3c(s2)c(=O)n(-c2cncc4ncc(C)n24)c(=O)n3CCC#N)c(Cl)cc1F [Example 952] | 16.2 | 10.9 | –
35 | COc1cc(-c2cc3c(s2)c(=O)n(-c2cncc(OC4CC4)c2)c(=O)n3CCC#N)c(Cl)cc1F [Example 953] | 36.3 | 8.28 | –
36 | COc1cc(-c2cc3c(s2)c(=O)n(-c2cncc4nc(C(F)F)n(C)c24)c(=O)n3CCC#N)c(Cl)cc1F [Example 954] | 26 | 14.5 | –
37 | COc1cc(-c2cc3[nH]c(=O)n(-c4cncc5cnn(C6CC6)c45)c(=O)c3s2)c(Cl)cc1F [Example 975, 6-(2-chloro-4-fluoro-5-methoxy-phenyl)-3-(1-cyclopropylpyrazolo[4,3-c]pyridin-7-yl)-1H-thieno[3,2-d]pyrimidine-2,4-dione] | 10.3 | 6.33 | –
38 | COc1cc(-c2cc3[nH]c(=O)n(-c4cncc5ccn(C)c(=O)c45)c(=O)c3s2)c(Cl)cc1F [Example 976, 6-(2-chloro-4-fluoro-5-methoxy-phenyl)-3-(6-methyl-5-oxo-2,6-naphthyridin-4-yl)-1H-thieno[3,2-d]pyrimidine-2,4-dione] | 15.4 | 8.07 | –
39 | COc1cc(-c2cc3[nH]c(=O)n(-c4cncc5c(C#N)nn(C)c45)c(=O)c3s2)c(Cl)cc1F [Example 977] | 101 | 21.2 | –
40 | COc1cc(-c2cc3[nH]c(=O)n(-c4cncc5nccn45)c(=O)c3s2)c(Cl)cc1F [Example 978] | – | 33.4 | 369
41 | COc1cc(-c2cc3c(s2)c(=O)n(-c2cncc4c(C)nn(C)c24)c(=O)n3CCC#N)c(Cl)cc1F [Example 979, 3-(6-(2-chloro-4-fluoro-5-methoxyphenyl)-3-(1,3-dimethyl-1H-pyrazolo[4,3-c]pyridin-7-yl)-2,4-dioxo-3,4-dihydrothieno[3,2-d]pyrimidin-1(2H)-yl)propanenitrile] | 3.07 | 3.71 | –
42 | COc1cc(-c2cc3c(s2)c(=O)n(-c2cncc4cnc(C)n24)c(=O)n3CCC#N)c(Cl)cc1F [Example 980] | 10.4 | 7.64 | –
43 | COc1cc(-c2cc3c(s2)c(=O)n(-c2cncc(C)c2)c(=O)n3CCC#N)c(Cl)cc1F [Example 981] | 1.39 | 1.38 | –
44 | COc1cc(-c2cc3c(s2)c(=O)n(-c2cccnc2)c(=O)n3CCC#N)c(Cl)cc1F [Example 982] | 7.89 | 4.12 | –
45 | COc1cc(-c2cc3c(s2)c(=O)n(-c2cncnc2)c(=O)n3CCC#N)c(Cl)cc1F [Example 983] | 23.1 | 6.05 | –
46 | Cc1cncc(-n2c(=O)c3sc(-c4ccccc4Cl)cc3n(CCC#N)c2=O)c1 [Example 984] | – | 3.12 | 3.69
47 | COc1cc(-c2cc3c(s2)c(=O)n(-c2cncc(Cl)c2)c(=O)n3CCC#N)c(Cl)cc1F [Example 985] | 6.7 | 2.11 | –
48 | COc1cc(-c2cc3c(s2)c(=O)n(-c2cncc(F)c2)c(=O)n3CCC#N)c(Cl)cc1F [Example 986] | 4.39 | 2.37 | –
